Experimental data reported in patent US5593970A, “Heterocyclic anthracycline analogs” (priority 1994, dated 1997).
Read-outs that look alike come from different tables or passages of the source.

Tests used:
Leukemia = test: NCI assay, average per cancer type; conditions: for CC50: 48 h, read-out: Average LOG10 LC50; for GI50: read-out: Average LOG10 GI50
SKOV3 = test: Microculture tetrazolium assay; format: cell-based; conditions: Homo sapiens, SK-OV-3, SKOV3; read-out: IC50
SKVLB = test: Microculture tetrazolium assay; format: cell-based; conditions: for VLB/OV3: IC50 ratio SKVLB/SKOV3; for IC50: SKVLB, read-out: IC50
tumor cell lines = test: NCI sulforhodamine B assay, all cell lines; conditions: for CC50 / IC100 / GI50: Homo sapiens; for CC50 / IC100: 48 h; for CC50: read-out: Log10 LC50, Mean / MG-MID, all cell lines (converted); for IC100: read-out: Log10 TGI, Mean / MG-MID, all cell lines; for GI50: read-out: Log10 GI50, Mean / MG-MID, all cell lines (converted)
T47D = test: Microculture tetrazolium assay; format: cell-based; conditions: Homo sapiens, read-out: IC50
NSC Lung = test: NCI assay, average per cancer type; conditions: Homo sapiens; for CC50: 48 h, read-out: Average LOG10 LC50; for GI50: read-out: Average LOG10 GI50
SC Lung = test: NCI assay, average per cancer type; conditions: Homo sapiens; for CC50: 48 h, read-out: Average LOG10 LC50; for GI50: read-out: Average LOG10 GI50
solid tumors = test: NCI assay, mean potency in solid tumors; conditions: Homo sapiens; for GI50: read-out: Average LOG10 GI50, Mean Potency in solid tumors; for CC50: 48 h, read-out: Average LOG10 LC50, Mean Potency in solid tumors
Melanoma = test: NCI assay, average per cancer type; conditions: Homo sapiens; for GI50: read-out: Average LOG10 GI50; for CC50: read-out: Average LOG10 LC50
LOX = test: Microculture tetrazolium assay; format: cell-based
Renal = test: NCI assay, average per cancer type; conditions: Homo sapiens; for CC50: 48 h, read-out: Average LOG10 LC50; for GI50: read-out: Average LOG10 GI50
HT29 = test: Microculture tetrazolium assay; format: cell-based; conditions: Homo sapiens, HT-29, HT29; read-out: IC50
CNS = test: NCI assay, average per cancer type; conditions: Homo sapiens; for CC50: 48 h, read-out: Average LOG10 LC50; for GI50: read-out: Average LOG10 GI50
Ovarian = test: NCI assay, average per cancer type; conditions: Homo sapiens; for CC50: 48 h, read-out: Average LOG10 LC50; for GI50: read-out: Average LOG10 GI50
Colon = test: NCI assay, average per cancer type; conditions: Homo sapiens; for CC50: 48 h, read-out: Average LOG10 LC50; for GI50: read-out: Average LOG10 GI50

Structure (SMILES) | CC50 (Leukemia) | GI50 (Leukemia) | CC50 (tumor cell lines) | IC100 (tumor cell lines) | GI50 (tumor cell lines) | CC50 (NSC Lung) | GI50 (NSC Lung) | CC50 (SC Lung) | GI50 (SC Lung) | GI50 (solid tumors) | GI50 (Melanoma) | CC50 (Renal) | GI50 (Renal) | CC50 (CNS) | GI50 (CNS) | CC50 (Ovarian) | GI50 (Ovarian) | CC50 (Colon) | GI50 (Colon) | CC50 (Melanoma; 48 h) | also measured
CCOC(=O)[C@@H]1CC2=C(C(=O)c3c(cc4ccccc4c3OC(C)=O)C2=O)[C@@H](O)O1 (relative stereo) [BCH-657, Ethyl[1-hydroxy-11-acetoxy-5,12-dioxo-3,4-5,12-tetrahydroanthraceno(2,3-C)pyran-3-yl]formate] | > 100 µM | 0.437 µM | 26.3 µM | 4.07 µM | 1.17 µM | 11.5 µM | 1.12 µM | > 100 µM | 1.26 µM | 1.29 µM | 1.35 µM | 12 µM | 1.32 µM | 13.2 µM | 1.86 µM | 17.4 µM | 1.7 µM | 13.5 µM | 0.794 µM |  | IC50 (SKOV3): 6.8 µM; VLB/OV3 (SKVLB): 0.99; IC50 (SKVLB): 6.75 µM; antiproliferative and cytotoxic activity in words (tumor cell lines): strong antiproliferative (GI50) and potent cytotoxic (LC50) activities; IC50 (T47D): 13.1 µM; IC50 (LOX): 9.3 µM; IC50 (HT29): 2.28 µM
COC(=O)[C@@H]1CC2=C(C(=O)c3cc4ccccc4cc3C2=O)[C@@H](O[C@H]2C[C@H](NC(=O)C(F)(F)F)[C@H](O)[C@H](C)O2)O1 [BCH-671] | > 100 µM | 1.82 µM | 29.5 µM | 7.76 µM | 2.88 µM | 30.2 µM | 4.57 µM | 55 µM | 2.51 µM | 2.95 µM | 2.09 µM | 23.4 µM | 2.82 µM | 42.7 µM | 4.27 µM | 33.9 µM | 3.63 µM | 15.8 µM | 1.91 µM | 21.4 µM | IC50 (SKOV3): 4.69 µM; VLB/OV3 (SKVLB): 1.32; IC50 (SKVLB): 6.19 µM; IC50 (T47D): 2.86 µM; CC50 (solid tumors): 29.5 µM; IC50 (LOX; read-out: IC50): 2.61 µM; IC50 (HT29): 4.23 µM
COC(=O)[C@H]1CC2=C(C(=O)c3cc4ccccc4cc3C2=O)[C@H](O[C@H]2C[C@H](NC(=O)C(F)(F)F)[C@H](O)[C@H](C)O2)O1 [BCH-670] | > 100 µM | 1.66 µM | 29.5 µM | 8.32 µM | 2.75 µM | 24 µM | 3.09 µM | 38.9 µM | 3.31 µM | 3.02 µM | 1.78 µM | 29.5 µM | 4.37 µM | 26.3 µM | 3.63 µM | 39.8 µM | 3.8 µM | 25.1 µM | 2.04 µM | 20.4 µM | CC50 (solid tumors): 26.9 µM
CCOC(=O)C1Cc2c(O)c3c(c(O)c2CO1)C(=O)c1ccccc1C3=O (centres unmarked) [BCH-650] | > 100 µM | 61.7 µM | 100 µM | 100 µM | 79.4 µM | > 100 µM | > 100 µM | > 100 µM | > 100 µM | 52.5 µM |  | > 100 µM | 52.5 µM | > 100 µM | 45.7 µM | > 100 µM | > 100 µM | > 100 µM | > 100 µM | > 100 µM | IC50 (SKOV3): 100 µM; IC50 (SKVLB): 100 µM; IC50 (T47D): 100 µM; CC50 (solid tumors): > 100 µM; GI50 (Melanoma; 48 h): > 100 µM; IC50 (LOX; read-out: IC50): 100 µM; IC50 (HT29): 91.1 µM
CC(=O)C1Cc2c(O)c3c(c(O)c2CO1)C(=O)c1ccccc1C3=O (centres unmarked) [BCH-688, Methyl-(5,12-dihydroxy-6,11-dioxo-3,4,6,11-tetrahydroanthraceno-[2,3-c]pyran-3-yl)ketone] | > 100 µM | 36.3 µM | 100 µM | 97.7 µM | 75.9 µM | > 100 µM | > 100 µM | > 100 µM | > 100 µM | 52.5 µM | > 100 µM | > 100 µM | > 100 µM | > 100 µM | 53.7 µM | > 100 µM | 75.9 µM | > 100 µM | > 100 µM | > 100 µM | IC50 (SKOV3): 100 µM; IC50 (SKVLB): 100 µM; IC50 (T47D): 100 µM; CC50 (solid tumors): > 100 µM; IC50 (LOX; read-out: IC50): 100 µM; IC50 (HT29): 100 µM
COC(=O)[C@@H]1CC2=C(C(=O)c3cc4ccccc4cc3C2=O)[C@H](O[C@H]2C[C@H](NC(=O)C(F)(F)F)[C@H](O)[C@H](C)O2)O1 [BCH-672] | 42.7 µM | 1.29 µM | 26.9 µM | 7.94 µM | 2.63 µM | 27.5 µM | 3.55 µM | 39.8 µM | 2.04 µM | 2.75 µM | 1.55 µM | 24 µM | 4.17 µM | 31.6 µM | 4.68 µM | 25.7 µM | 3.16 µM | 28.2 µM | 1.66 µM | 21.4 µM | CC50 (solid tumors): 27.5 µM
CCOC(=O)C1CC2=C(C(=O)c3c(c(O)c4ccccc4c3OC)C2=O)C(O[C@H]2C[C@H](NC(=O)C(F)(F)F)[C@H](O)[C@H](C)O2)O1 (mixture of isomers) [BCH-689, (1'S,1R,3S) and (1'S,1S,3R) Ethyl (6-hydroxy-11-methoxy-5,12-dioxo-1-(3,-trifluoroacetamido-1-daunosaminyl)-3,4,5,12-tetrahydroanthraceno[2,3-c]pyran-3-yl)formate] | < 100 µM | 15.5 µM | 45.7 µM | 26.3 µM | 12.6 µM | 41.7 µM | 13.5 µM | 42.7 µM | 11.5 µM | 12 µM | 12.6 µM | 37.2 µM | 11.2 µM | 40.7 µM | 12.9 µM | 42.7 µM | 11.5 µM | 38.9 µM | 11.2 µM | 41.7 µM | IC50 (SKOV3): 3.79 µM; VLB/OV3 (SKVLB): 1.06; IC50 (SKVLB): 4.02 µM
COC(=O)[C@@H]1CC2=C(C(=O)c3cc4ccccc4c(O)c3C2=O)[C@@H](O[C@H]2C[C@H](NC(=O)C(F)(F)F)[C@H](O)[C@H](C)O2)O1 [BCH-683] | < 100 µM | 1.82 µM | 21.9 µM | 5.75 µM | 2.14 µM | 28.2 µM | 3.02 µM | 8.32 µM | 1.86 µM | 2.09 µM | 1.12 µM | 26.3 µM | 3.16 µM | 31.6 µM | 3.39 µM | 15.8 µM | 2.09 µM | 10.5 µM | 1.29 µM | 7.08 µM | CC50 (solid tumors): 15.5 µM
